According to a melting point compilation (Tetko et al.; mined from patent text by program, amines drawn as free bases though some values may be those of a salt):

Structure (SMILES)	melting point [°C]
Cc1cc(C(C)(C)C)c(Cl)c(C)c1SSc1c(C)cc(C(C)(C)C)c(Cl)c1C	128 to 129
COc1cc2oc(=O)c(CCN3CCN(c4ccccc4OC)CC3)c(C)c2cc1O	235 to 237
CCc1nc(/C=C/c2cn(-c3ccccc3)nc2OCc2ccc(OCc3nc(-c4cccc(CC(=O)O)c4)oc3C)c(OC)c2)cs1	154 to 155
N#Cc1ccc2cccc(N3CCN(CCCCOc4ccc5c(n4)NC(=O)NCC5)CC3)c2c1	168 to 170
COc1ccc(CCNC(=O)C2=C(C(=O)Nc3cc(OC4CCCC4)c(Cl)cc3F)CCCC2)cc1OC	159 to 161
CCN1C(=O)C(C)(C)CCc2c1ccc(Nc1ncc(Cl)c(N[C@@H]3CCCC[C@H]3NS(C)(=O)=O)n1)c2OC	123 to 126
CC(C)C(=O)[C@H]1CCn2c(cc3ccccc32)C1	78 to 79
CNC(=O)C(=O)CCCCCCSc1ccc(-c2ccccc2)cc1	131 to 132
CC(C)N(CC(O)COc1ccccc1C(=O)Nc1cccc2[nH]ccc12)C(C)C (centres undefined)	160
Cc1c(NC(=O)c2ccc(OC[C@@H]3CCCO3)cc2)ccc2cc(CN[C@H](C)C(C)(C)C)cnc12	140 to 141
CCN1CC2CN(CC)CC(C1)C2O (centres undefined)	61.5
COC(=O)c1cc2c([nH]c3ccc(Br)cc32)s1	216 to 218
CSc1cc2c(cn1)c(=O)n1nccc1n2C	267
CCOC(=O)C1=CNC2=C(C(=O)CCC2)C1c1nccs1 (centres undefined)	239 to 240
CCCC=Cc1c(C(C)C)nc(C(C)C)c(CO)c1-c1ccc(Cl)c(Cl)c1	46 to 48
CN(C)S(=O)(=O)n1cc(I)cn1	32
CC(=O)Oc1c(C)c(C)c2c(c1C)CCC(O)O2 (centres undefined)	115 to 120
C=CCNc1nc(NCCOC)nc2c(C)csc12	87 to 88
O=C(CCCc1ccccc1)N[C@H]1C[C@H](C(=O)O)Nc2cc(Cl)cc(Cl)c21 (relative stereo)	189 to 191
COC=C1C(=O)N(OCc2ccccc2)C(=O)c2ccccc21	161 to 162

Structure (SMILES)	melting point [°C]
CC(O)(c1ccc(F)cc1)C1CCN(CCCC(=O)c2ccc(F)cc2)CC1 (centres undefined)	116 to 118
Cc1nc(OCC(F)(F)F)c([N+](=O)[O-])c(N2CCC(c3ccc(F)cc3)CC2)n1	61 to 64
CC1(C)OC(=O)Nc2ccc(-c3ccccc3F)cc21	164 to 165
CNC(=O)[C@@H]1O[C@H]1c1ccc(OC)cc1	135 to 136
COc1ccccc1C1(CC(=O)N2CCN(c3ccncc3)CC2)C(=O)Nc2ccc(Cl)cc21 (centres undefined)	111
CCC[C@H](NC(=O)/C=C/S(=O)(=O)c1ccccc1)C(=S)OC	131 to 132
COc1ccc(CS(=O)(=O)CC(=O)O)cc1O	164 to 165
CN1C2CCC1CC(c1n[nH]c3ccccc13)C2 (centres undefined)	191 to 192
O=C1CCC(N2Cc3c(CNC(=O)NCc4ccccc4)cccc3C2=O)C(=O)N1 (centres undefined)	304 to 306
CC(=O)Nc1cccc(C#Cc2ccc([C@@H]3CC[C@@H]4CCCCN43)cc2)c1 (relative stereo)	161 to 163
CC(C)C(OCc1ccccc1)[C@H]1[C@H]([N+](=O)[O-])[C@H](c2cccnc2)N[C@@H]1C(=O)NCCC(=O)O (some centres undefined)	98 to 100
CC(C)c1nc2ccccn2c(=O)c1-c1ccc(Cl)cc1	98 to 100
C(=C\c1nc(CSc2ccc(CCCn3ccnc3)cc2)co1)/c1ccccc1	74 to 75
O=c1[nH]c2ccc(-c3cccnc3)cc2cc1Br	297 to 300
O=C1Nc2ccccc2C(c2ccccc2F)CC1Br (centres undefined)	208 to 214
O=S(=O)(Nc1ccccc1OCCCN1CCC(OC(c2ccccc2)c2ccccc2)CC1)c1ccccc1	131 to 132
O=[N+]([O-])c1ccc2c(c1)CCC(COC1CCCCO1)O2 (centres undefined)	66.4
COC(=O)c1cccc2nc(SCCCCCC(=O)Nc3c(SC)cc(C)nc3SC)oc12	141 to 142
C=CC(=O)N(CC)c1cn(-c2cccnc2)nc1Cl	67 to 68
